Measurements as given in the kinase profiling compilation of Christmann-Franck et al. (2016).
Several values for one entry are separate records, joined by “and”; a condition that tells them apart may be missing. Equal values may be shown once.

Key:
EIF2AK2 (human) = EIF2AK2 (human) (UniProt P19525); assay: IMAP-FP
PKN1 (human) = PKN1 (human) (UniProt Q16512); assay: IMAP-FP
EIF2AK3 (human) = EIF2AK3 (human) (UniProt Q9NZJ5); assay: IMAP-FP
PLK2 (human) = PLK2 (human) (UniProt Q9NYY3); assay: IMAP-FP
SRPK1 (human) = SRPK1 (human) (UniProt Q96SB4); assay: IMAP-FP
NIM1 (human) = NIM1 (human) (UniProt Q8IY84); assay: Caliper, Mobility shift assay off-chip
NIM1 (human), sequence (Q8IY84 whole entry, looked up): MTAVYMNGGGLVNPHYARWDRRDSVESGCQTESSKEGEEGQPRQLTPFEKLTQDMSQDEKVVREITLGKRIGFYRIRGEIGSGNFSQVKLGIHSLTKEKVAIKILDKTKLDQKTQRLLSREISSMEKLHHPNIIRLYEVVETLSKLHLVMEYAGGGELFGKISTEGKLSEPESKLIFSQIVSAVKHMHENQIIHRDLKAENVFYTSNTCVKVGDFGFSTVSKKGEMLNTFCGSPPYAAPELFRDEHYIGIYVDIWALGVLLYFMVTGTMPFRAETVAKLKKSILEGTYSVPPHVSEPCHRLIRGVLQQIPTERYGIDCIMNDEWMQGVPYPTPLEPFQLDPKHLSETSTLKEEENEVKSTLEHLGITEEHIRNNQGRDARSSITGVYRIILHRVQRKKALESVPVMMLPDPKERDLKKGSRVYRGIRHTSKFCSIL

STK24 (human) = STK24 (human) (UniProt Q9Y6E0); assay: Caliper, Mobility shift assay off-chip
PRKCI (human) = PRKCI (human) (UniProt P41743); assay: Caliper, Mobility shift assay off-chip
KIT (human) = KIT (human) (UniProt P10721); assay: Caliper, Mobility shift assay off-chip
FGFR1 (human) = FGFR1 (human) (UniProt P11362); assay: Caliper, Mobility shift assay off-chip
FGFR1 (human), sequence (P11362 whole entry, looked up): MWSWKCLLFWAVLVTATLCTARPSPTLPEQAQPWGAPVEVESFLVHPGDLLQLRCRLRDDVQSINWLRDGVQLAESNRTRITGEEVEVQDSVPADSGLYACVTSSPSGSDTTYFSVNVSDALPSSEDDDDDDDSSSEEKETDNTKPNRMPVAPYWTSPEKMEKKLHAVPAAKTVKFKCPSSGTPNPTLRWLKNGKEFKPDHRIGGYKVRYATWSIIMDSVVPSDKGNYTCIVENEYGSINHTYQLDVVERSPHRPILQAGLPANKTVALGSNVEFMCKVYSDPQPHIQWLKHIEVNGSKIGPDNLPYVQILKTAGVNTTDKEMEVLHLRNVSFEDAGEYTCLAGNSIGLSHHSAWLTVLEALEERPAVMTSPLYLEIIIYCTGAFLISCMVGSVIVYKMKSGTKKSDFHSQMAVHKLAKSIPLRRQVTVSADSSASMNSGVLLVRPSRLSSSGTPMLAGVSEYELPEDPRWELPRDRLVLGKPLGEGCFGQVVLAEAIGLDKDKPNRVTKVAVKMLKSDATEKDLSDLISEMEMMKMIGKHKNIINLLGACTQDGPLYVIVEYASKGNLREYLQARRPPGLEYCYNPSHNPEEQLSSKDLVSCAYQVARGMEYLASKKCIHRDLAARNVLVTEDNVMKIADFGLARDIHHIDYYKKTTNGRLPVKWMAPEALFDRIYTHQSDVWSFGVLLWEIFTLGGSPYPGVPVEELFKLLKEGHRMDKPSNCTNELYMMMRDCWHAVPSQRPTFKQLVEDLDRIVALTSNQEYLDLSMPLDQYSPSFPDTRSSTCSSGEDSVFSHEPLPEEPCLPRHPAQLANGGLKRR

MET (human) = MET (human) (UniProt P08581); assay: Caliper, Mobility shift assay off-chip
EPHA1 (human) = EPHA1 (human) (UniProt P21709); assay: Caliper, Mobility shift assay off-chip
GSK3B (human) = GSK3B (human) (UniProt P49841); assay: Caliper, Mobility shift assay off-chip
IKBKB (human) = IKBKB (human) (UniProt O14920); assay: Caliper, Mobility shift assay off-chip
IKBKB (human), sequence (O14920 whole entry, looked up): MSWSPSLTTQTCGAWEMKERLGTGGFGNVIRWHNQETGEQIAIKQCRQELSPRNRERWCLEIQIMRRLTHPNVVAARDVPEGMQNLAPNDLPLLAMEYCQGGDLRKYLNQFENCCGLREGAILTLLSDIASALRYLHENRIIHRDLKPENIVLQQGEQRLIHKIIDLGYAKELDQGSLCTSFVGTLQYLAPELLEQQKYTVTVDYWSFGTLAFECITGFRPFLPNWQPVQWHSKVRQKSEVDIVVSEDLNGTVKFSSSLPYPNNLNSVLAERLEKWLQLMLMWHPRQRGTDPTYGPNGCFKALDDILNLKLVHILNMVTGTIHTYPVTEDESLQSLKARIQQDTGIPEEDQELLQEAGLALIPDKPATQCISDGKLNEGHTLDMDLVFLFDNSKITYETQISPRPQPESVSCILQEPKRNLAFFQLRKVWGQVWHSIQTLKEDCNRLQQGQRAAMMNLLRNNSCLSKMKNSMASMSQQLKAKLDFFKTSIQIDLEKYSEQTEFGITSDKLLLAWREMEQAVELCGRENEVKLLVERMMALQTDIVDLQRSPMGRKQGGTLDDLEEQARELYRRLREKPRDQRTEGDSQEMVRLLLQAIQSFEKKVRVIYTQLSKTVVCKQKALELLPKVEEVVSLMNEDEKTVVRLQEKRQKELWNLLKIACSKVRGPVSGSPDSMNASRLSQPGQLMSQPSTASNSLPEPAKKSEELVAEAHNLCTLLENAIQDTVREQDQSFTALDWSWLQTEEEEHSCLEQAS

BRSK2 (human) = BRSK2 (human) (UniProt Q8IWQ3); assay: Caliper, Mobility shift assay off-chip
ERBB4 (human) = ERBB4 (human) (UniProt Q15303); assay: Caliper, Mobility shift assay off-chip
HIPK3 (human) = HIPK3 (human) (UniProt Q9H422); assay: Caliper, Mobility shift assay off-chip
CHUK (human) = CHUK (human) (UniProt O15111); assay: Caliper, Mobility shift assay off-chip
EPHB2 (human) = EPHB2 (human) (UniProt P29323); assay: Caliper, Mobility shift assay off-chip
EPHB2 (human), sequence (P29323 whole entry, looked up): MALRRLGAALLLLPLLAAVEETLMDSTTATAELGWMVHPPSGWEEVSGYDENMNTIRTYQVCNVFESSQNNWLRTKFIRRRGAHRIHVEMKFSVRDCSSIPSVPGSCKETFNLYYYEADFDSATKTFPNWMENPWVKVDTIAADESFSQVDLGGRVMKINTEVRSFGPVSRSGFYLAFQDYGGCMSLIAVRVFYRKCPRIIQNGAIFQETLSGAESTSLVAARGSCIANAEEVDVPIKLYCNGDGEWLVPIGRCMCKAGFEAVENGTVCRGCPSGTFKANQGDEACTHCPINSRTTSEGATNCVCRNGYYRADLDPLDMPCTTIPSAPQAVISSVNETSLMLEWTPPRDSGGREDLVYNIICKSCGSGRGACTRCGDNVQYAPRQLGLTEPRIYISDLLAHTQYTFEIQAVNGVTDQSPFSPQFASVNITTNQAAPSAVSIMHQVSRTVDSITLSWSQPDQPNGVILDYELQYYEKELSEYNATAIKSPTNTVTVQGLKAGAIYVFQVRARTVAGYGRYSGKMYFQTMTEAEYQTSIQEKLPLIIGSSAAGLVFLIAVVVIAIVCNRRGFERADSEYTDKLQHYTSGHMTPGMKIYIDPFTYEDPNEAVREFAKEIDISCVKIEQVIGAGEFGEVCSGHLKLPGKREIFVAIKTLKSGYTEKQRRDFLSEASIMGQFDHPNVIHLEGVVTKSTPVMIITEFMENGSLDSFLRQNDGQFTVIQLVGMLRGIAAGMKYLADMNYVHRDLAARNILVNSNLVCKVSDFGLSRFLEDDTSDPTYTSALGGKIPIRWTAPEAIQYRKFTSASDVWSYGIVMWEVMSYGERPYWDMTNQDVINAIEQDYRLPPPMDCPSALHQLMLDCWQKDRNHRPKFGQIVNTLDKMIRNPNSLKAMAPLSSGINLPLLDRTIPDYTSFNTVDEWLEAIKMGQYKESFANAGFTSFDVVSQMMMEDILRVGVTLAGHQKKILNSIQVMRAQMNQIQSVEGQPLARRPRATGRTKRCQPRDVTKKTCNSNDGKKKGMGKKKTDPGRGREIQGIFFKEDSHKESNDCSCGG

PRKX (human) = PRKX (human) (UniProt P51817); assay: Caliper, Mobility shift assay off-chip
PRKX (human), sequence (P51817 whole entry, looked up): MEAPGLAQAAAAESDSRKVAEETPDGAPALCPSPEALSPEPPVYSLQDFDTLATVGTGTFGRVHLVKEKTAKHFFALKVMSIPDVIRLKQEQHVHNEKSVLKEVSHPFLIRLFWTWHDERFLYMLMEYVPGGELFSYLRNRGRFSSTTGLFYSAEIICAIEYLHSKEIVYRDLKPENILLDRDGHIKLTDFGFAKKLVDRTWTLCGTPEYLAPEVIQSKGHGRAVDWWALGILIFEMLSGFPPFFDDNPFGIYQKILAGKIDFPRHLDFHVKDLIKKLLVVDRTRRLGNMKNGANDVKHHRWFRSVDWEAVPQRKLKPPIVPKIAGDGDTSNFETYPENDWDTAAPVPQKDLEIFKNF

CDK4 (human) = CDK4 (human) (UniProt P11802); assay: Caliper, Mobility shift assay off-chip
MINK1 (human) = MINK1 (human) (UniProt Q8N4C8); assay: Caliper, Mobility shift assay off-chip
CHEK1 (human) = CHEK1 (human) (UniProt O14757); assay: Caliper, Mobility shift assay off-chip
DAPK1 (human) = DAPK1 (human) (UniProt P53355); assay: Caliper, Mobility shift assay off-chip
PRKCG (human) = PRKCG (human) (UniProt P05129); assay: Caliper, Mobility shift assay off-chip
PDPK1 (human) = PDPK1 (human) (UniProt O15530); assay: Caliper, Mobility shift assay off-chip
FGR (human) = FGR (human) (UniProt P09769); assay: Caliper, Mobility shift assay off-chip
DYRK1A (human) = DYRK1A (human) (UniProt Q13627); assay: Caliper, Mobility shift assay off-chip
CDK2 (human) = CDK2 (human) (UniProt P24941); assay: Caliper, Mobility shift assay off-chip
WNK3 (human) = WNK3 (human) (UniProt Q9BYP7); assay: Caliper, Mobility shift assay off-chip
FRK (human) = FRK (human) (UniProt P42685); assay: Caliper, Mobility shift assay off-chip
EPHB3 (human) = EPHB3 (human) (UniProt P54753); assay: Caliper, Mobility shift assay off-chip
BLK (human) = BLK (human) (UniProt P51451); assay: Caliper, Mobility shift assay off-chip
CSK (human) = CSK (human) (UniProt P41240); assay: Caliper, Mobility shift assay off-chip
MAPKAPK5 (human) = MAPKAPK5 (human) (UniProt Q8IW41); assay: Caliper, Mobility shift assay off-chip
MAPKAPK5 (human), sequence (Q8IW41 whole entry, looked up): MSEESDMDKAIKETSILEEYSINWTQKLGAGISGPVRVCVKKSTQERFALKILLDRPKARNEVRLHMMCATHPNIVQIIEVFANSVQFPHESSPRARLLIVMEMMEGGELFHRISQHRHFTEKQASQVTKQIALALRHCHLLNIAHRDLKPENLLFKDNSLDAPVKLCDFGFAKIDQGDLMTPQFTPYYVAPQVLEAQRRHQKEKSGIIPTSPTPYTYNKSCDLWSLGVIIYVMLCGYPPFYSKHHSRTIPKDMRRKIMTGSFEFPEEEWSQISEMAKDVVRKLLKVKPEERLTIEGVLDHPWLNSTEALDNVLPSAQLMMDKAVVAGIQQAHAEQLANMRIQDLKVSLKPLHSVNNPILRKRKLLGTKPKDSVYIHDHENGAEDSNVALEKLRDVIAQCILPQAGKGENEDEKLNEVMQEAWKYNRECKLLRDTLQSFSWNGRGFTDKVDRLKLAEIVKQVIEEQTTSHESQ

EIF2AK3 (human), sequence (Q9NZJ5 whole entry, looked up): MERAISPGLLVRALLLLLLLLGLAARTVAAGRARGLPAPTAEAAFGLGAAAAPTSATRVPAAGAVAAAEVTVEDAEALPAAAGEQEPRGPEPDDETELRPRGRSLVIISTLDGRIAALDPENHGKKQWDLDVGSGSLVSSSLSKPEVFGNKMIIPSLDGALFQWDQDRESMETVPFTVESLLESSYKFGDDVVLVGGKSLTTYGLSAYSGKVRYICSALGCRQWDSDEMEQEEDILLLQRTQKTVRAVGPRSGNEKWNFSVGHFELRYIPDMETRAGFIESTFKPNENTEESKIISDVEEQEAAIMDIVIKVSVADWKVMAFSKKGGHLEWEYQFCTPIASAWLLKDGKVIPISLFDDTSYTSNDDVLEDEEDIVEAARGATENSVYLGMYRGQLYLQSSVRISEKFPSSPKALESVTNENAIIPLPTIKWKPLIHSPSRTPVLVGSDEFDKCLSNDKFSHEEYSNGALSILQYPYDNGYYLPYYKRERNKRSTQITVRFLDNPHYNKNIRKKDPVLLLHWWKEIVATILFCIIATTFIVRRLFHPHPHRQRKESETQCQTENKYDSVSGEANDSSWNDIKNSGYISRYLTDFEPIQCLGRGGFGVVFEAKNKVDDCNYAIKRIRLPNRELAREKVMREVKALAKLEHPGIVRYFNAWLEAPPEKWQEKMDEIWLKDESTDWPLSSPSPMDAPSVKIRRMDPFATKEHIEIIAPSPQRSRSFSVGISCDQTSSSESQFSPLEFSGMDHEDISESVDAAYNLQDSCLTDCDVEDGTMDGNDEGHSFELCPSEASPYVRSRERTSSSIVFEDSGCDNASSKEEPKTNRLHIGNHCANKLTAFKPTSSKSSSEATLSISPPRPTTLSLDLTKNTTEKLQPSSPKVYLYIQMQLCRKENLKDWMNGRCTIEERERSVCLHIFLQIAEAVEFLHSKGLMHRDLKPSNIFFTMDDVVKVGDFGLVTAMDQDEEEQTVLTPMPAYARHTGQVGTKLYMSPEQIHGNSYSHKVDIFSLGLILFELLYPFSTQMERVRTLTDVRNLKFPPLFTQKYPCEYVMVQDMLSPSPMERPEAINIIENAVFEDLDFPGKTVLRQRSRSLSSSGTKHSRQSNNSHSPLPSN

Compound: COc1cc2c(Oc3ccc4[nH]c(C)cc4c3F)ncnc2cc1OCCCN1CCCC1
- inhibition (EIF2AK2 (human); compound 0.02 µM): -13.8%
- inhibition (EIF2AK2 (human); compound 0.2 µM): -6.6%
- inhibition (PKN1 (human); compound 0.02 µM): -35.8%
- inhibition (PKN1 (human); compound 0.2 µM): -32.5%
- inhibition (EIF2AK3 (human); compound 0.02 µM): -18%
- inhibition (EIF2AK3 (human); compound 0.2 µM): -16.8%
- inhibition (PLK2 (human); compound 0.02 µM): -0.9%
- inhibition (PLK2 (human); compound 0.2 µM): -1.6%
- inhibition (SRPK1 (human); compound 0.2 µM): -5.6%
- inhibition (NIM1 (human); compound 0.02 µM): 15.8%
- inhibition (NIM1 (human); compound 0.2 µM): -9.8%
- inhibition (STK24 (human); compound 0.02 µM): 2%
- inhibition (STK24 (human); compound 0.2 µM): 12.8%
- inhibition (PRKCI (human); compound 0.02 µM): 4.3%
- inhibition (PRKCI (human); compound 0.2 µM): 6%
- inhibition (KIT (human); compound 0.02 µM): 64.1%
- inhibition (KIT (human); compound 0.2 µM): 71.4%
- inhibition (FGFR1 (human); compound 0.02 µM): 52.9%
- inhibition (FGFR1 (human); compound 0.2 µM): 91.2%
- inhibition (MET (human); compound 0.02 µM): 1%
- inhibition (MET (human); compound 0.2 µM): 6%
- inhibition (EPHA1 (human); compound 0.02 µM): -0.2%
- inhibition (EPHA1 (human); compound 0.2 µM): 6.5%
- inhibition (GSK3B (human); compound 0.02 µM): 0.7%
- inhibition (GSK3B (human); compound 0.2 µM): 0.8%
- inhibition (IKBKB (human); compound 0.02 µM): -4%
- inhibition (IKBKB (human); compound 0.2 µM): -4.5%
- inhibition (BRSK2 (human); compound 0.02 µM): -2.3%
- inhibition (BRSK2 (human); compound 0.2 µM): 2.8%
- inhibition (ERBB4 (human); compound 0.02 µM): 17.2%
- inhibition (ERBB4 (human); compound 0.2 µM): 49.8%
- inhibition (HIPK3 (human); compound 0.02 µM): -6.3%
- inhibition (HIPK3 (human); compound 0.2 µM): 0.5%
- inhibition (CHUK (human); compound 0.02 µM): 5.3%
- inhibition (CHUK (human); compound 0.2 µM): 5.3%
- inhibition (EPHB2 (human); compound 0.02 µM): -4.3%
- inhibition (EPHB2 (human); compound 0.2 µM): 8.7%
- inhibition (PRKX (human); compound 0.02 µM): 1.7%
- inhibition (PRKX (human); compound 0.2 µM): -0.9%
- inhibition (CDK4 (human); compound 0.02 µM): 2.7%
- inhibition (CDK4 (human); compound 0.2 µM): 7.2%
- inhibition (MINK1 (human); compound 0.02 µM): 3.5%
- inhibition (MINK1 (human); compound 0.2 µM): 2.9%
- inhibition (CHEK1 (human); compound 0.02 µM): -6.2%
- inhibition (CHEK1 (human); compound 0.2 µM): -0.1%
- inhibition (DAPK1 (human); compound 0.02 µM): -5.9%
- inhibition (DAPK1 (human); compound 0.2 µM): 7.4%
- inhibition (PRKCG (human); compound 0.02 µM): 3.8%
- inhibition (PRKCG (human); compound 0.2 µM): 4.1%
- inhibition (PDPK1 (human); compound 0.02 µM): -2.1%
- inhibition (PDPK1 (human); compound 0.2 µM): -4.8%
- inhibition (FGR (human); compound 0.02 µM): 12.6%
- inhibition (FGR (human); compound 0.2 µM): 27.6%
- inhibition (DYRK1A (human); compound 0.02 µM): 10%
- inhibition (DYRK1A (human); compound 0.2 µM): -4%
- inhibition (CDK2 (human); compound 0.02 µM): 1% and -0.2%
- inhibition (CDK2 (human); compound 0.2 µM): -3% and -3.9%
- inhibition (WNK3 (human); compound 0.02 µM): 0.8%
- inhibition (WNK3 (human); compound 0.2 µM): -1.1%
- inhibition (FRK (human); compound 0.02 µM): 12%
- inhibition (FRK (human); compound 0.2 µM): 27.4%
- inhibition (EPHB3 (human); compound 0.02 µM): -2.6%
- inhibition (EPHB3 (human); compound 0.2 µM): -1.3%
- inhibition (BLK (human); compound 0.02 µM): 13.8%
- inhibition (BLK (human); compound 0.2 µM): 36.1%
- inhibition (CSK (human); compound 0.02 µM): -6.7%
- inhibition (CSK (human); compound 0.2 µM): -6.3%
- inhibition (MAPKAPK5 (human); compound 0.02 µM): 2%
- inhibition (MAPKAPK5 (human); compound 0.2 µM): 0.1%

Compound: CNC(=O)c1cc(Oc2ccc(NC(=O)Nc3ccc(Cl)c(C(F)(F)F)c3)cc2)ccn1
- inhibition (EIF2AK2 (human); compound 0.02 µM): -12.3%
- inhibition (EIF2AK2 (human); compound 0.2 µM): -14.3%
- inhibition (PKN1 (human); compound 0.02 µM): -40.2%
- inhibition (PKN1 (human); compound 0.2 µM): -39.4%
- inhibition (EIF2AK3 (human); compound 0.02 µM): -23.9%
- inhibition (EIF2AK3 (human); compound 0.2 µM): 4.5%
- inhibition (PLK2 (human); compound 0.02 µM): -0.6%
- inhibition (PLK2 (human); compound 0.2 µM): -2.1%
- inhibition (SRPK1 (human); compound 0.02 µM): -5.4%
- inhibition (SRPK1 (human); compound 0.2 µM): 0.2%
- inhibition (NIM1 (human); compound 0.02 µM): -3.6%
- inhibition (NIM1 (human); compound 0.2 µM): 6.4%
- inhibition (STK24 (human); compound 0.02 µM): -3.9%
- inhibition (STK24 (human); compound 0.2 µM): 5.6%
- inhibition (PRKCI (human); compound 0.02 µM): -0.2%
- inhibition (PRKCI (human); compound 0.2 µM): 5.7%
- inhibition (KIT (human); compound 0.02 µM): 32.9%
- inhibition (KIT (human); compound 0.2 µM): 89.8%
- inhibition (FGFR1 (human); compound 0.02 µM): 5.3%
- inhibition (FGFR1 (human); compound 0.2 µM): 49.9%
- inhibition (MET (human); compound 0.02 µM): -12.2%
- inhibition (MET (human); compound 0.2 µM): 4.4%
- inhibition (EPHA1 (human); compound 0.02 µM): -1.2%
- inhibition (EPHA1 (human); compound 0.2 µM): 8%
- inhibition (GSK3B (human); compound 0.02 µM): -6.7%
- inhibition (GSK3B (human); compound 0.2 µM): 2.9%
- inhibition (IKBKB (human); compound 0.02 µM): 0.9%
- inhibition (IKBKB (human); compound 0.2 µM): 1.4%
- inhibition (BRSK2 (human); compound 0.02 µM): -1.1%
- inhibition (BRSK2 (human); compound 0.2 µM): -1.3%
- inhibition (ERBB4 (human); compound 0.02 µM): -0.4%
- inhibition (ERBB4 (human); compound 0.2 µM): 10.4%
- inhibition (HIPK3 (human); compound 0.02 µM): 3.2%
- inhibition (HIPK3 (human); compound 0.2 µM): 28%
- inhibition (CHUK (human); compound 0.02 µM): 3.4%
- inhibition (CHUK (human); compound 0.2 µM): 1%
- inhibition (EPHB2 (human); compound 0.02 µM): -2.9%
- inhibition (EPHB2 (human); compound 0.2 µM): 14.4%
- inhibition (PRKX (human); compound 0.02 µM): -7%
- inhibition (PRKX (human); compound 0.2 µM): 0.2%
- inhibition (CDK4 (human); compound 0.02 µM): -2.3%
- inhibition (CDK4 (human); compound 0.2 µM): -2.5%
- inhibition (MINK1 (human); compound 0.02 µM): -3.3%
- inhibition (MINK1 (human); compound 0.2 µM): 4.1%
- inhibition (CHEK1 (human); compound 0.02 µM): -2.7%
- inhibition (CHEK1 (human); compound 0.2 µM): 5.3%
- inhibition (DAPK1 (human); compound 0.02 µM): 0.7%
- inhibition (DAPK1 (human); compound 0.2 µM): 1.1%
- inhibition (PRKCG (human); compound 0.02 µM): -2.1%
- inhibition (PRKCG (human); compound 0.2 µM): 16.8%
- inhibition (PDPK1 (human); compound 0.02 µM): -1%
- inhibition (PDPK1 (human); compound 0.2 µM): 0.9%
- inhibition (FGR (human); compound 0.02 µM): 1.6%
- inhibition (FGR (human); compound 0.2 µM): 14.2%
- inhibition (DYRK1A (human); compound 0.02 µM): -7.5%
- inhibition (DYRK1A (human); compound 0.2 µM): 3.6%
- inhibition (CDK2 (human); compound 0.02 µM): -3.5% and -3.6%
- inhibition (CDK2 (human); compound 0.2 µM): -1.3% and -2.4%
- inhibition (WNK3 (human); compound 0.02 µM): -8%
- inhibition (WNK3 (human); compound 0.2 µM): 3.9%
- inhibition (EPHB3 (human); compound 0.02 µM): -2.4%
- inhibition (EPHB3 (human); compound 0.2 µM): 0.9%
- inhibition (BLK (human); compound 0.02 µM): 1%
- inhibition (BLK (human); compound 0.2 µM): 6.4%
- inhibition (CSK (human); compound 0.02 µM): -9.3%
- inhibition (CSK (human); compound 0.2 µM): 2.6%
- inhibition (MAPKAPK5 (human); compound 0.02 µM): -7.4%
- inhibition (MAPKAPK5 (human); compound 0.2 µM): 1.4%
